Measurements: US20080096967A1, “Formulations for Injection of Catecholic Butanes, Including Ndga Compounds, Into Animals” (priority 2005, published 2008)

Key:
[1] = test system: Beagle dogs; test: 7-Day intravenous infusion toxicity study of M4N(CPE) in Beagle dogs; type: in vivo
Method: This study was conducted to evaluate the toxicokinetic profile of M4N formulated in 30% HP-β-CD and 25% PEG 300 when administered as a single intravenous infusion dose for seven consecutive days in beagle dogs. This study constitutes the first study of this particular formulation of M4N in dogs and was executed to evaluate the toxicity and compare tolerability of a diluted formulation (10 mg/mL versus 5 mg/mL).
A total of twelve beagle dogs (8 male/4 female) were dosed with M4N via a 54-minute (Group 2) or 108-minute (Groups 1, 3 and 4) intravenous infusion. All animals received seven doses, one per day over seven consecutive days.
The following parameters were evaluated: clinical observations and body weights. Test article analysis was performed on Study Days 1 and 7, blood samples (targeting a volume of 2.0 mL) were collected from each animal from an appropriate vessel at the following time points:
Gross necropsies were performed on Groups 1 and 3 animals and all injection sites were processed for histology. […] Discolored urine appeared in Groups 1 and 3. […] The finding is likely indicative of irritation due to multiple needle insertions in the same dosing area (cephalic vein). […] Finally, sporadic observations of diarrhea, emesis, mucoid feces and soft feces were noted. These observations are common in beagle dogs and were considered stress-induced and not test article-related.

[2] = M4N solubility in water miscible organic solvents up to 48 hours (RP-HPLC); type: physicochemical
Method: To prepare M4N samples, 200 μL of 100 mg/mL M4N dissolved in acetone were placed in 1.5 mL polypropylene microtubes. The solvent was allowed to evaporate at room temperature for 48 hours until the samples were completely dry.
The water miscible organic solvent formulations were prepared in 15 mL polypropylene centrifuge tubes. 10 mL of each formulation was prepared. Each solvent was added on the basis of weight using its respective density at 25° C. Following brief mixing, each formulation was filtered through a 0.45 μm surfactant free cellulose acetate (“SFCA”) filter into a fresh 15 mL tube. Formulations were kept at room temperature until ready for use.
At each time point, the samples were centrifuged for 2 minutes at 13,000 rpm to pellet any solid M4N. As noted in Table 25, over half of the formulation conditions examined were able to solubilize M4N to a concentration of greater than 10 mg/Ml.

SMILES: COc1ccc(C[C@@H](C)[C@@H](C)Cc2ccc(OC)c(OC)c2)cc1OC [Formulation M4N, meso-1,4-bis(3,4-dimethoxyphenyl)-2,3-dimethylbutane]
- injection site histology, treated vs controls ([1]; Group 3 (90 mg/kg) vs Group 1 (vehicle)): more irritating than the vehicle
- gross necropsy findings ([1]; Groups 1 and 3): No other gross findings
- detailed clinical observations ([1]; Groups 2, 3 and 4 (45 or 90 mg/kg), daily IV infusion for 7 days, 30% HP-β-CD and 25% PEG 300): transient reversible uncoordination of hindlimbs
- M4N solubility ([2]; 14% EtOH, 30% PG, 40% Crem, 10% T80, 6% DMA, 2 hrs at room temperature): 9030 µg/mL
- M4N solubility ([2]; 14% EtOH, 30% PG, 40% Crem, 10% T80, 6% DMA, 24 hrs at room temperature): 12080 µg/mL
- M4N solubility ([2]; 14% EtOH, 30% PG, 40% Crem, 10% T80, 6% DMA, 48 hrs at room temperature): 12280 µg/mL
- M4N solubility ([2]; 14% EtOH, 30% PG, 40% Glyc, 10% T80, 6% DMA, 2 hrs at room temperature): 850 µg/mL
- M4N solubility ([2]; 14% EtOH, 30% PG, 40% Glyc, 10% T80, 6% DMA, 24 hrs at room temperature): 1240 µg/mL
- M4N solubility ([2]; 14% EtOH, 30% PG, 40% Glyc, 10% T80, 6% DMA, 48 hrs at room temperature): 1480 µg/mL
- M4N solubility ([2]; 14% EtOH, 30% PG, 40% PEG300, 10% T80, 6% DMA, 2 hrs at room temperature): 9400 µg/mL
- M4N solubility ([2]; 14% EtOH, 30% PG, 40% PEG300, 10% T80, 6% DMA, 24 hrs at room temperature): 10550 µg/mL
- M4N solubility ([2]; 14% EtOH, 30% PG, 40% PEG300, 10% T80, 6% DMA, 48 hrs at room temperature): 11300 µg/mL
- M4N solubility ([2]; 18% EtOH, 30% PG, 40% Crem, 10% T80, 2% Benz, 2 hrs at room temperature): 8640 µg/mL
- M4N solubility ([2]; 18% EtOH, 30% PG, 40% Crem, 10% T80, 2% Benz, 24 hrs at room temperature): 11780 µg/mL
- M4N solubility ([2]; 18% EtOH, 30% PG, 40% Crem, 10% T80, 2% Benz, 48 hrs at room temperature): 11860 µg/mL
- M4N solubility ([2]; 18% EtOH, 30% PG, 40% Glyc, 10% T80, 2% Benz, 2 hrs at room temperature): 580 µg/mL
- M4N solubility ([2]; 18% EtOH, 30% PG, 40% Glyc, 10% T80, 2% Benz, 24 hrs at room temperature): 1010 µg/mL
- M4N solubility ([2]; 18% EtOH, 30% PG, 40% Glyc, 10% T80, 2% Benz, 48 hrs at room temperature): 1150 µg/mL
- M4N solubility ([2]; 18% EtOH, 30% PG, 40% PEG300, 10% T80, 2% Benz, 2 hrs at room temperature): 7840 µg/mL
- M4N solubility ([2]; 18% EtOH, 30% PG, 40% PEG300, 10% T80, 2% Benz, 24 hrs at room temperature): 9790 µg/mL
- M4N solubility ([2]; 18% EtOH, 30% PG, 40% PEG300, 10% T80, 2% Benz, 48 hrs at room temperature): 10160 µg/mL
- M4N solubility ([2]; 24% EtOH, 30% PG, 30% Crem, 10% T80, 6% DMA, 2 hrs at room temperature): 10420 µg/mL
- M4N solubility ([2]; 24% EtOH, 30% PG, 30% Crem, 10% T80, 6% DMA, 24 hrs at room temperature): 11250 µg/mL
- M4N solubility ([2]; 24% EtOH, 30% PG, 30% Crem, 10% T80, 6% DMA, 48 hrs at room temperature): 12480 µg/mL
- M4N solubility ([2]; 24% EtOH, 30% PG, 30% Glyc, 10% T80, 6% DMA, 2 hrs at room temperature): 1630 µg/mL
- M4N solubility ([2]; 24% EtOH, 30% PG, 30% Glyc, 10% T80, 6% DMA, 24 hrs at room temperature): 2260 µg/mL
- M4N solubility ([2]; 24% EtOH, 30% PG, 30% Glyc, 10% T80, 6% DMA, 48 hrs at room temperature): 2520 µg/mL
- M4N solubility ([2]; 24% EtOH, 30% PG, 30% PEG300, 10% T80, 6% DMA, 2 hrs at room temperature): 9910 µg/mL
- M4N solubility ([2]; 24% EtOH, 30% PG, 30% PEG300, 10% T80, 6% DMA, 24 hrs at room temperature): 10800 µg/mL
- M4N solubility ([2]; 28% EtOH, 30% PG, 30% Crem, 10% T80, 2% Benz, 2 hrs at room temperature): 8980 µg/mL
- M4N solubility ([2]; 28% EtOH, 30% PG, 30% Crem, 10% T80, 2% Benz, 24 hrs at room temperature): 11350 µg/mL
- M4N solubility ([2]; 28% EtOH, 30% PG, 30% Crem, 10% T80, 2% Benz, 48 hrs at room temperature): 11280 µg/mL
- M4N solubility ([2]; 28% EtOH, 30% PG, 30% Glyc, 10% T80, 2% Benz, 2 hrs at room temperature): 1860 µg/mL
- M4N solubility ([2]; 28% EtOH, 30% PG, 30% Glyc, 10% T80, 2% Benz, 24 hrs at room temperature): 2220 µg/mL
- M4N solubility ([2]; 28% EtOH, 30% PG, 30% Glyc, 10% T80, 2% Benz, 48 hrs at room temperature): 2530 µg/mL
- M4N solubility ([2]; 28% EtOH, 30% PG, 30% PEG300, 10% T80, 2% Benz, 2 hrs at room temperature): 8870 µg/mL
- M4N solubility ([2]; 28% EtOH, 30% PG, 30% PEG300, 10% T80, 2% Benz, 24 hrs at room temperature): 10190 µg/mL
- M4N solubility ([2]; 28% EtOH, 30% PG, 30% PEG300, 10% T80, 2% Benz, 48 hrs at room temperature): 10270 µg/mL
- M4N solubility ([2]; 44% EtOH, 50% Crem, 6% DMA, 2 hrs at room temperature): 14850 µg/mL
- M4N solubility ([2]; 44% EtOH, 50% Crem, 6% DMA, 24 hrs at room temperature): 20420 µg/mL
- M4N solubility ([2]; 44% EtOH, 50% Crem, 6% DMA, 48 hrs at room temperature): 21080 µg/mL
- M4N solubility ([2]; 44% EtOH, 50% Glycerol, 6% DMA, 2 hrs at room temperature): 1430 µg/mL
- M4N solubility ([2]; 44% EtOH, 50% Glycerol, 6% DMA, 24 hrs at room temperature): 1900 µg/mL
- M4N solubility ([2]; 44% EtOH, 50% Glycerol, 6% DMA, 48 hrs at room temperature): 2010 µg/mL
- M4N solubility ([2]; 44% EtOH, 50% PEG300, 6% DMA, 2 hrs at room temperature): 15120 µg/mL
- M4N solubility ([2]; 44% EtOH, 50% PEG300, 6% DMA, 24 hrs at room temperature): 18610 µg/mL
- M4N solubility ([2]; 44% EtOH, 50% PEG300, 6% DMA, 48 hrs at room temperature): 18270 µg/mL
- M4N solubility ([2]; 44% EtOH, 50% PG, 6% DMA, 2 hrs at room temperature): 4800 µg/mL
- M4N solubility ([2]; 44% EtOH, 50% PG, 6% DMA, 24 hrs at room temperature): 5480 µg/mL
- M4N solubility ([2]; 44% EtOH, 50% PG, 6% DMA, 48 hrs at room temperature): 2930 µg/mL
- M4N solubility ([2]; 44% EtOH, 50% T80, 6% DMA, 2 hrs at room temperature): 17720 µg/mL
